From US20260344665A1, “FUNGICIDAL COMPOUND” (priority 2022, published 2026)

Columns and labels:
Type in all cases: in vivo
[1] = system: Puccinia recondita f. sp. tritici; experiment: Leaf painting assay in wheat seedling, Puccinia recondita preventive
Experimental: Wheat seedlings of the variety Riband (for Zymoseptoria tritici trials) or variety Arina (for Puccinia recondite trials) were grown in the glasshouse until 14d after seeding. At this time, such seedlings usually have a first leaf fully emerged (designated L1), a second leaf fully emerged (L2) and a third leaf (L3) that is partially emerged and in the process of development. Using a permanent pen, two dots were applied on the second leaf such as to generate three segments of roughly equal size: Segment A (at the base), segment B (middle part) and segment C (tip of the leaf). A stock solution of the compound of Formula (I) was produced in water and of benzovindiflupyr in DMSO at a concentration of 10,000 ppm. […] The diluted compound was applied to the middle segment of L2 using a conventional cotton stick; the cotton stick was soaked in the diluted compound and rubbed several times on the adaxial leaf surface between the two marks. One day later, the complete plant was inoculated with a fungal spore suspension using a paint brush. The spore suspension was applied until before run-off.
For infection with Puccinia recondita (preventive): The test plants were inoculated by spraying them with a spore suspension one day after application (spore suspension at 80,000 spores per ml in water supplemented with Tween20 at 0.1%). After an incubation period of 1 day at 20 °C and 95% rh, the inoculated test plants were kept at 20 °C and 60% rh in a greenhouse.
The three segments of the leaf were evaluated individually.

Puccinia recondita = experiment: Mixture with malonomicin, leaf disc, Puccinia recondita curative; settings: foliar, 192 h, read-out: control of fungal growth
From the text: An additional ingredient having pesticidal activity, for instance fungicidal activity may result in an unexpected synergistic activity. […] The action to be expected E for a given active ingredient combination obeys the so-called COLBY formula and can be calculated as follows (COLBY, S. R. “Calculating synergistic and antagonistic responses of herbicide combination”. Weeds, Vol. 15, pages 20-22; 1967): • ppm=milligrams of active ingredient (=a.i.) per liter of spray mixture • X=% action by active ingredient A) using p ppm of active ingredient • Y=% action by active ingredient B) using q ppm of active ingredient.
According to COLBY, the expected (additive) action of active ingredients A)+B) using p+q ppm of active ingredient is:
In mathematical terms, synergism corresponds to a positive value for the difference of (O-E). In the case of purely complementary addition of activities (expected activity), said difference (O-E) is zero. A negative value of said difference (O-E) signals a loss of activity compared to the expected activity.
(§1) A stock solution for oligosaccharide compound according to the present invention was produced in water plus 0.025% Tween®20. Malonomicin was produced according to Law et al, 2018 (Nature Catalys is | VOL 1 | DECEMBER 2018 | 977-984). A stock solution of malonomicin was produced in water plus 0.025% Tween®20.
(§2) Assays to test efficacy of mixtures of the compound of Formula (I) in combination with malonomicin on the control of fungal pathogens in a leaf disc assay were designed for two 24 well plates.
Table 8 and 9: Outline of 24 well testplate (1) and testplate (2) including concentration of compounds sprayed per well. The upper number in the cell indicates the oligosaccharide compound of the present invention concentration (ppm), the lower number malonomicin concentration (ppm). Column (1) holds a dilution series of compound of Formula (I), row (2-D) hold a dilution series of malonomicin. Well 2-D-(1) represents an untreated check. This design was applied for tests including Puccinia recondita (EPPO code: PUCCRE) with preventive and curative spray timing.
(§3) A first set of master plates with 1× concentrated spray solution of the compound of Formula (I) stock diluted in water with concentrations according to Table 8, Table 9, Table 11 and Table 12, respectively, was prepared. Each well contained 0.025% Tween®20. Accordingly, a second set of master plates with 1× concentrated malonomicin stock diluted in water was prepared. Each well of the second set contained 0.025% Tween®20. Leaf segments placed on agar in 24 well plates are sprayed with 8 ul of solution from the master plate containing compound of Formula (I) and the leaf segments were let to dry, followed 2 hours later by 8 ul of solution from the master plate containing malonomicin. After second sprays have dried, leaf segments are infected with fungal spores to obtain a preventive application timing. Alternatively, leaf segments infected one day before spray of the compounds are used, resulting in a curative spray timing. In addition, several plates were produced where leaf segments were sprayed 2× in absence of test compound (with only Tween®20), representing the untreated check samples. For each leaf segment percent leaf coverage of disease symptoms was assessed. Percent leaf coverage reduction relative to the untreated check was calculated. Efficacy of the mixtures was tested in duplicate and on different fungal species. Reported efficacy values are the average of two replicate results.
Puccinia recondita (EPPO Code: PUCCRE) with Curative Spray Timing.
Wheat (cultivar Kanzler) leaf segments are placed on agar in multiwell plates (24-well format). The leaf disks are then inoculated with a spore suspension of the fungus. One day after inoculation the test solution is sprayed (8 ul per well). After appropriate incubation the activity of a compound is assessed 8 dpi (days after inoculation) as curative fungicidal activity

[2] = system: Blumeria graminis f.sp. tritici; experiment: Mixture with malonomicin, leaf disc, Blumeria graminis f.sp. tritici preventive; settings: foliar, 168 h, read-out: control of fungal growth
From the text: as §1, §2
Table 11 and Table 12: Outline of 24 well testplate (3) and testplate (4) including concentration of compounds per well. The upper number in the cell indicates the oligosaccharide compound of the present invention concentration (ppm), the lower number malonomicin concentration (ppm). Column (1) holds a dilution series of compound of Formula (I), row (4-D) hold a dilution series of malonomicin. Well 4-D-(1) represents an untreated check. This design was applied for tests including Blumeria graminis f.sp. tritici (EPPO code: ERYSGT) with preventive spray timing and Parastagonospora nodorum (EPPO code: LEPTNO) with preventive spray timing.
as §3
Blumeria graminis f.sp. tritici (EPPO Code: ERYSGT) with Preventive Spray Timing
Wheat (cultivar Kanzler) leaf segments are placed on agar in multiwell plates (24-well format) and sprayed with test solutions (8 ul per well). After drying, the leaf disks are inoculated with spores of the fungus. After appropriate incubation the activity of a compound is assessed 7 dpi (days post inoculation) as preventive fungicidal activity.

For `CC(=O)NC1C(OCC(OC2OC(CO)C(O)C(O)C2O)C2OC(OC3C(O)C(CO)OC(OC4(CO)OC(C(O)CO)C(O)C4OC4OC(CO)C(O)C(O)C4O)C3O)C(O)C(O)C2OC2OC(C(O)CO)C(O)C(O)C2OC2OCC(OC(N)=O)C(O)C2O)OC(CO)C(O)C1O` (stereo not shown) [compound of Formula (I)], the “% reduction fungal growth” value ([1]; Experiment 1, 200.00 ppm, base segment, preventive) was 0%, the “% reduction fungal growth” value ([1]; Experiment 1, 200.00 ppm, middle segment (treated), preventive) was 48% and the “% reduction fungal growth” value ([1]; Experiment 1, 200.00 ppm, tip segment, preventive) was 31%. For the same molecule, the “% reduction fungal growth” value ([1]; Experiment 2, 200.00 ppm, base segment, preventive) was 10%, the “% reduction fungal growth” value ([1]; Experiment 2, 200.00 ppm, middle segment (treated), preventive) was 79% and the “% reduction fungal growth” value ([1]; Experiment 2, 200.00 ppm, tip segment, preventive) was 38%. For the same molecule, the “% reduction fungal growth” value ([1]; Experiment 3, 400.00 ppm, base segment, preventive) was 16%, the “% reduction fungal growth” value ([1]; Experiment 3, 400.00 ppm, middle segment (treated), preventive) was 98% and the “% reduction fungal growth” value ([1]; Experiment 3, 400.00 ppm, tip segment, preventive) was 99%. For the same molecule, the “% reduction fungal growth” value ([1]; Experiment 4, 500.00 ppm, base segment, preventive) was 0%, the “% reduction fungal growth” value ([1]; Experiment 4, 500.00 ppm, middle segment (treated), preventive) was 69% and the “% reduction fungal growth” value ([1]; Experiment 4, 500.00 ppm, tip segment, preventive) was 82%. The “activity against growth of fungus” value ([1]; leaf painting, preventive) was “active against growth”, the “control on treated and above treated area” value ([1]; middle segment treated) was “provided control on the treated area (middle segment) as well as the above treated area (tip)” and the inhibition of growth at 3.13 µg/mL (Puccinia recondita; Formula (I) 3.13 ppm solo) was 0%. The inhibition of growth at 6.25 µg/mL (Puccinia recondita; Formula (I) 6.25 ppm solo) was 0%, the inhibition of growth at 12.5 µg/mL (Puccinia recondita; Formula (I) 12.5 ppm solo) was 10% and the inhibition of growth at 25 µg/mL (Puccinia recondita; Formula (I) 25 ppm solo) was 10%. The inhibition of growth at 50 µg/mL (Puccinia recondita; Formula (I) 50 ppm solo) was 20%, the inhibition of growth at 100 µg/mL (Puccinia recondita; Formula (I) 100 ppm solo) was 70% and the inhibition of growth at 200 µg/mL (Puccinia recondita; Formula (I) 200 ppm solo) was 80%. The inhibition of growth at 9.38 µg/mL ([2]; Formula (I) 9.38 ppm solo) was 10%, the inhibition of growth at 18.75 µg/mL ([2]; Formula (I) 18.75 ppm solo) was 0% and the inhibition of growth at 37.5 µg/mL ([2]; Formula (I) 37.5 ppm solo) was 0%. The inhibition of growth at 75 µg/mL ([2]; Formula (I) 75 ppm solo) was 20%, the inhibition of growth at 150 µg/mL ([2]; Formula (I) 150 ppm solo) was 0% and the inhibition of growth at 300 µg/mL ([2]; Formula (I) 300 ppm solo) was 10%. It also gave an inhibition of growth at 600 µg/mL ([2]; Formula (I) 600 ppm solo) of 10%.
